One assay concerns the target T1, hDyn2 (Homo sapiens, UniProt P50570).
T1 sequence (P50570 1-870): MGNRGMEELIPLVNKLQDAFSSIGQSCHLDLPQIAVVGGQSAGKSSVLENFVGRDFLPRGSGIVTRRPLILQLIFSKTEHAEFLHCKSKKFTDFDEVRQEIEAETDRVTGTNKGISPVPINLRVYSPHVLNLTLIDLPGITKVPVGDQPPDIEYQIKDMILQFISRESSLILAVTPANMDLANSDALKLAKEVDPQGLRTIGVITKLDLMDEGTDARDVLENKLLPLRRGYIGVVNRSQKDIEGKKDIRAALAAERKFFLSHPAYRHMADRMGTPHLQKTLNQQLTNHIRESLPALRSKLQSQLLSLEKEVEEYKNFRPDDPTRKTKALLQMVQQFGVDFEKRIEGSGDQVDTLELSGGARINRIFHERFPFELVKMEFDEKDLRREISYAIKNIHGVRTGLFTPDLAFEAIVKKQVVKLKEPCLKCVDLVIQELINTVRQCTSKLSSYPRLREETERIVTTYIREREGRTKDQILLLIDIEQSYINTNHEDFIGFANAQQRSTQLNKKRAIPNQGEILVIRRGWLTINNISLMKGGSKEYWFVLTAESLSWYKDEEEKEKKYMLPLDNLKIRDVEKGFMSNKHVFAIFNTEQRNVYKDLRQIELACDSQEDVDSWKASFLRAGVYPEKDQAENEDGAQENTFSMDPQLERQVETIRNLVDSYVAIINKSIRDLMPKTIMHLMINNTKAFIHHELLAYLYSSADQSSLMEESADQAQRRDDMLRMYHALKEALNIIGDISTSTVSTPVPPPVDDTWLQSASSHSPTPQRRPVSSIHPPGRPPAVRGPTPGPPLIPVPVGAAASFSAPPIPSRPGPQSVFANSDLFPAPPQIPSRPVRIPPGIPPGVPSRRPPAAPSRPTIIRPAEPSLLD
Put plainly: negative-stain EM, GTP-induced helix disassembly on actin bundles. The following applies: 1 mM GTP, with actin, room temperature, 30 min. In kind it is binding.

Another assay has as its target T2, hDyn1 (Homo sapiens, UniProt Q05193).
T2 sequence (Q05193 1-864): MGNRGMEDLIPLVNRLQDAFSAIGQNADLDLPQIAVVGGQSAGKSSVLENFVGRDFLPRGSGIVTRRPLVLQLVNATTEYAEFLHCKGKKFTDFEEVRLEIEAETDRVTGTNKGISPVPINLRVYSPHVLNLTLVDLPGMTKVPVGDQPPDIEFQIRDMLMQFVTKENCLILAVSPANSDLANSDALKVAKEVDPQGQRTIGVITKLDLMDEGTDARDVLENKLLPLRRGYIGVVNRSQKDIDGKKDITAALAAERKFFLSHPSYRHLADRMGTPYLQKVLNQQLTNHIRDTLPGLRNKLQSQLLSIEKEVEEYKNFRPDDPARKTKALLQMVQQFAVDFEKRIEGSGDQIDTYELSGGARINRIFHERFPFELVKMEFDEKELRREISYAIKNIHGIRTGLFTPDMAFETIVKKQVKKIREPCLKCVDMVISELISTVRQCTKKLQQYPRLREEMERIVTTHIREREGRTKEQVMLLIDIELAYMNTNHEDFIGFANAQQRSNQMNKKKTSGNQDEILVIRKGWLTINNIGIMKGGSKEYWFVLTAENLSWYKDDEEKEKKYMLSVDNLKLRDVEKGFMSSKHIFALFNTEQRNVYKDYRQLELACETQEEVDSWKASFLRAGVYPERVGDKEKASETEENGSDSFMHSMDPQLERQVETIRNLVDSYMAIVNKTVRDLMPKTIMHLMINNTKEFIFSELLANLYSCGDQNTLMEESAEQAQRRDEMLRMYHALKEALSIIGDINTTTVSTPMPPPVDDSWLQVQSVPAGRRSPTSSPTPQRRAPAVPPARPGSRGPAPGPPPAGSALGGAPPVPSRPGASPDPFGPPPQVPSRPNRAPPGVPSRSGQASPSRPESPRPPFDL
The assay is described as above. In kind it is binding. Particulars: 1 mM GTP, with actin, room temperature, 30 min.

Consider `Nc1nc2c(ncn2[C@@H]2O[C@H](COP(=O)(O)OP(=O)(O)OP(=O)(O)O)[C@@H](O)[C@H]2O)c(=O)[nH]1` [GTP], for which the “negative-stain EM, GTP-induced helix disassembly on actin bundles” value at hDyn2 was “hDyn1 and hDyn2 helices along actin bundles were disassembled upon GTP addition”; on hDyn1 it was “hDyn1 and hDyn2 helices along actin bundles were disassembled upon GTP addition”.

These data come from paper PMC7953826 (Nature cell biology, 2020).
